Experimental data from ChEMBL document CHEMBL6134892, “Discovery and Evaluation of DA-302168S as an Efficacious Oral Small-Molecule Glucagon-Like Peptide-1 Receptor Agonist” (J Med Chem, 2025).

Legend:
[1] = target: Voltage-gated inwardly rectifying potassium channel KCNH2 (Homo sapiens, UniProt Q12809); experiment: Inhibition of human ERG by whole-cell patch clamp technique; type: toxicity
[2] = target: hERG (KCNH2) (Homo sapiens, UniProt Q12809); experiment: Inhibition of human ERG at 30 uM by whole-cell patch clamp technique relative to control; type: toxicity
Chain of hERG (KCNH2) (Q12809 whole entry): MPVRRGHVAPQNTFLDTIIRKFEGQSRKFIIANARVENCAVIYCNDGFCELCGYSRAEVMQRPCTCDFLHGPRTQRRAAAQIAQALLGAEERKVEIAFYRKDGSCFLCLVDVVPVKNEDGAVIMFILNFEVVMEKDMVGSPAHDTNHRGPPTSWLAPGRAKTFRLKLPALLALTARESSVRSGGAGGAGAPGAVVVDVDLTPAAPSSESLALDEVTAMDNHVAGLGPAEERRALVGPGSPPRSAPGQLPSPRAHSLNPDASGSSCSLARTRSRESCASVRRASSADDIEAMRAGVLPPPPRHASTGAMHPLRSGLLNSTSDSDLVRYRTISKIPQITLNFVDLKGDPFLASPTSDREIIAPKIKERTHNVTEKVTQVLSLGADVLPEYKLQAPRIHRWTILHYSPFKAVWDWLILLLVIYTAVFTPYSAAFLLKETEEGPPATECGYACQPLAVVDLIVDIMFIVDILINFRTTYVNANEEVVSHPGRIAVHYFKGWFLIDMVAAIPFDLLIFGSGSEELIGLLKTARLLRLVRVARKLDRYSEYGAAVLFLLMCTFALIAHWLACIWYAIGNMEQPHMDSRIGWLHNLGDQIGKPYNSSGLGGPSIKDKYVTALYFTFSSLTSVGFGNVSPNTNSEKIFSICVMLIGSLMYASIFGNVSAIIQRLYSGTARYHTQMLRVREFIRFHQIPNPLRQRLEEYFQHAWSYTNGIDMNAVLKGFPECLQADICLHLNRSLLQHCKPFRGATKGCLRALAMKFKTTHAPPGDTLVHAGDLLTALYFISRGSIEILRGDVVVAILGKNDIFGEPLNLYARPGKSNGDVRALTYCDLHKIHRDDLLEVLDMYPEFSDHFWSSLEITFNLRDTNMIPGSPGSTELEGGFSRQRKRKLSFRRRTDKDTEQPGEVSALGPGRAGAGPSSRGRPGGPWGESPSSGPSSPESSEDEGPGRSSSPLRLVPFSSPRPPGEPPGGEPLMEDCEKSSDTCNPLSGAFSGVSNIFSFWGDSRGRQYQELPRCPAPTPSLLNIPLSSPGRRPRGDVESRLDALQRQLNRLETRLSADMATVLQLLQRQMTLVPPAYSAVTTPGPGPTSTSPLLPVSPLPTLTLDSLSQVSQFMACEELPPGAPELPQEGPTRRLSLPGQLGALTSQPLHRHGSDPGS

[3] = Metabolic stability in human liver microsomes assessed as half life at 1 uM measured after 5 to 45 mins in presence of NADPH by LC-MS/MS analysis; type: ADME, Microsome; settings: time 5-45 min
[4] = Metabolic stability in human liver microsomes assessed as intrinsic clearance at 1 uM measured after 5 to 45 mins in presence of NADPH by LC-MS/MS analysis; type: ADME, Microsome; settings: time 5-45 min, read-out: CLH
[5] = Metabolic stability in human liver microsomes assessed as hepatic clearance at 1 uM measured after 5 to 45 mins in presence of NADPH by LC-MS/MS analysis; type: ADME, Microsome; settings: time 5-45 min
[6] = target: T1, Glucagon-like peptide 1 receptor (Homo sapiens, UniProt P43220); experiment: Agonist activity at human GLP-1R expressed in HEK293 cells coexpressing CRE LUC incubated for 5 hrs by luciferase based microplate reader analysis; type: functional, cell-based
T1 sequence (P43220 whole entry): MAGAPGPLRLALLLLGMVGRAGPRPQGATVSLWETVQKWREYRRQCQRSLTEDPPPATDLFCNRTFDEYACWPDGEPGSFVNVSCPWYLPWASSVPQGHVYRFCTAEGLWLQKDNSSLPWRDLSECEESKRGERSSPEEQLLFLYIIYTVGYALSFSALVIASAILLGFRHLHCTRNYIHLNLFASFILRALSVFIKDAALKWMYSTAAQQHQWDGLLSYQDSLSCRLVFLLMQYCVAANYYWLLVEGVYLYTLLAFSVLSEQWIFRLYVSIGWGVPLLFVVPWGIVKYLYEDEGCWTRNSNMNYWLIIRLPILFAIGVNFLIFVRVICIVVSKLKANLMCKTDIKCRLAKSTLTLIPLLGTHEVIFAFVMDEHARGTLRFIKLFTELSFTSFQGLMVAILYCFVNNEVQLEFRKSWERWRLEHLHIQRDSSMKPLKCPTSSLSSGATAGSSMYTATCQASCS

[7] = target: T2, Cytochrome P450 1A2 (Homo sapiens, UniProt P05177); experiment: Inhibition of CYP1A2 in human liver microsomes incubated for 10 mins in presence of NADPH by LC-MS/MS analysis; type: ADME, Microsome
T2 sequence (P05177 whole entry): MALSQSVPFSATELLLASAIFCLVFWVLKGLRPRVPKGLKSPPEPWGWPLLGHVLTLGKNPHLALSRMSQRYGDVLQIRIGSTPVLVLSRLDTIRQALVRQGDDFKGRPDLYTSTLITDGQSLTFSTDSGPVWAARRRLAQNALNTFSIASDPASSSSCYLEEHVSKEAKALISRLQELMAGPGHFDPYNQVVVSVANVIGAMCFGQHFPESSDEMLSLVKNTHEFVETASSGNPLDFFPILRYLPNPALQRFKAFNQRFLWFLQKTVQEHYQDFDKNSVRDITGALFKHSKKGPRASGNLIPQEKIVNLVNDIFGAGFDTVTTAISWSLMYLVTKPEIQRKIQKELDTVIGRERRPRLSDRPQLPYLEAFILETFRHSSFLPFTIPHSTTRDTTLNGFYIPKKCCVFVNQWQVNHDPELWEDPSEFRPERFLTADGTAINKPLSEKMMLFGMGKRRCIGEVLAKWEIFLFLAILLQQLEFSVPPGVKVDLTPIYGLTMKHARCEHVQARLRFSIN

[8] = target: T3, Cytochrome P450 2B6 (Homo sapiens, UniProt P20813); experiment: Inhibition of CYP2B6 in human liver microsomes incubated for 10 mins in presence of NADPH by LC-MS/MS analysis; type: ADME, Microsome
T3 sequence (P20813 whole entry): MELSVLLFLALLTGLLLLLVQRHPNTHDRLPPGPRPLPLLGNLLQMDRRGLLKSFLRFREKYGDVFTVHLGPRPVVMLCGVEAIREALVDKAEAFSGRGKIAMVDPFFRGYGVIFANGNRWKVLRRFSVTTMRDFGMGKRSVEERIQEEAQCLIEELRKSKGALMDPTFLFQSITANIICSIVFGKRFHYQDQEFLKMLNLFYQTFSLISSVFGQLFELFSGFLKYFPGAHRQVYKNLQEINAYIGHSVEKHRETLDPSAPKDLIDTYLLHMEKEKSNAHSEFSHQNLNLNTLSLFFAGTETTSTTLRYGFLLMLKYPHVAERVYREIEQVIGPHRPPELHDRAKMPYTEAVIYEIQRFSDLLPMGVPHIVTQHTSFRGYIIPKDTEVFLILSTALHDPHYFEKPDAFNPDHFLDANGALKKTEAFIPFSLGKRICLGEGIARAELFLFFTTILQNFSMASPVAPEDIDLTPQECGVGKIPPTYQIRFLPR

[9] = target: T4, Cytochrome P450 2C8 (Homo sapiens, UniProt P10632); experiment: Inhibition of CYP2C8 in human liver microsomes incubated for 20 mins in presence of NADPH by LC-MS/MS analysis; type: ADME, Microsome
T4 sequence (P10632 whole entry): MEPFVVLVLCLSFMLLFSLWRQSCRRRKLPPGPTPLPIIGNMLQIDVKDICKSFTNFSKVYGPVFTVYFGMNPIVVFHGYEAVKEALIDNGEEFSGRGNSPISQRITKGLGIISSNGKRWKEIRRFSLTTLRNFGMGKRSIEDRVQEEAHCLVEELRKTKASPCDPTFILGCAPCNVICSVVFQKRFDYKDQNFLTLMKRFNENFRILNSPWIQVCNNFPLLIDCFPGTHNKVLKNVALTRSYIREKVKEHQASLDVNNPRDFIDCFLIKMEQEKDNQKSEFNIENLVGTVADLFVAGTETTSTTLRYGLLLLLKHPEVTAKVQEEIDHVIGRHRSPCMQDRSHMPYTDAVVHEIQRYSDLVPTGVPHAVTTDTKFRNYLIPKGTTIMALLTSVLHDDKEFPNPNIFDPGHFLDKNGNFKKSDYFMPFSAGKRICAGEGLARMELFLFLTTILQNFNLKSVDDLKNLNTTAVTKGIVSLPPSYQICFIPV

[10] = target: Cytochrome P450 2C9 (Homo sapiens, UniProt P11712); experiment: Inhibition of CYP2C9 in human liver microsomes incubated for 10 mins in presence of NADPH by LC-MS/MS analysis; type: ADME, Microsome
Chain of Cytochrome P450 2C9 (P11712 whole entry): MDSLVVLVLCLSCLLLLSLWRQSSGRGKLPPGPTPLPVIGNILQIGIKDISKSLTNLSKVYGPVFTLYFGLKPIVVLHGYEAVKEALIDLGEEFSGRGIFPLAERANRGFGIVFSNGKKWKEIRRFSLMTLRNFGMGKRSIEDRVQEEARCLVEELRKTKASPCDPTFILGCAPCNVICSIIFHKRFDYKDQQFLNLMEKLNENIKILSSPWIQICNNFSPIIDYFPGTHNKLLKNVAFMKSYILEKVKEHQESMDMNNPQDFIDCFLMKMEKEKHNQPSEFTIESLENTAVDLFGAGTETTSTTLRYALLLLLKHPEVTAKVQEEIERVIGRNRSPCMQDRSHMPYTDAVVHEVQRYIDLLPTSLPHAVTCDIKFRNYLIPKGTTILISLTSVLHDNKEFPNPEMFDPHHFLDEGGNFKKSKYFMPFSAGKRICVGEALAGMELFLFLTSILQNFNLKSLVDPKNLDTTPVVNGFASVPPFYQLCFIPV

[11] = target: Cytochrome P450 2C19 (Homo sapiens, UniProt P33261); experiment: Inhibition of CYP2C19 in human liver microsomes incubated for 45 mins in presence of NADPH by LC-MS/MS analysis; type: ADME, Microsome
[12] = target: Cytochrome P450 2D6 (Homo sapiens, UniProt P10635); experiment: Inhibition of CYP2D6 in human liver microsomes incubated for 20 mins in presence of NADPH by LC-MS/MS analysis; type: ADME, Microsome
Chain of Cytochrome P450 2D6 (P10635 whole entry): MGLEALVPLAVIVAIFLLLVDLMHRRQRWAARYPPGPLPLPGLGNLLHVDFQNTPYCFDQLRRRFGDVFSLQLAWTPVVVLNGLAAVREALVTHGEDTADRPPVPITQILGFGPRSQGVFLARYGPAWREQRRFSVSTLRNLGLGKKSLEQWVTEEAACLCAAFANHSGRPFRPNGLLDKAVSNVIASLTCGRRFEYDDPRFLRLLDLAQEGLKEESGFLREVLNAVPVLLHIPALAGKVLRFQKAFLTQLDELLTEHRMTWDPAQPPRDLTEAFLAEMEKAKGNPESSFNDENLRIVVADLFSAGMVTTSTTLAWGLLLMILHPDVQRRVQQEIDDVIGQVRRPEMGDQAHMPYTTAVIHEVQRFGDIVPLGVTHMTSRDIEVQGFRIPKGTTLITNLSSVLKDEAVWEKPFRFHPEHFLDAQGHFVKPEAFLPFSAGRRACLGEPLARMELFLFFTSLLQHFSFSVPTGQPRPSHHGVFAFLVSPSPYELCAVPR

[13] = target: Cytochrome P450 3A4 (Homo sapiens, UniProt P08684); experiment: Inhibition of CYP3A4 in human liver microsomes using testosterone as substrate incubated for 5 mins in presence of NADPH by LC-MS/MS analysis; type: ADME, Microsome
[14] = target: T5, Glucagon-like peptide 1 receptor (Mus musculus, UniProt O35659); experiment: Agonist activity at mouse GLP-1R expressed in HEK293 cells by cAMP accumulation assay; type: functional, cell-based
T5 sequence (O35659 whole entry): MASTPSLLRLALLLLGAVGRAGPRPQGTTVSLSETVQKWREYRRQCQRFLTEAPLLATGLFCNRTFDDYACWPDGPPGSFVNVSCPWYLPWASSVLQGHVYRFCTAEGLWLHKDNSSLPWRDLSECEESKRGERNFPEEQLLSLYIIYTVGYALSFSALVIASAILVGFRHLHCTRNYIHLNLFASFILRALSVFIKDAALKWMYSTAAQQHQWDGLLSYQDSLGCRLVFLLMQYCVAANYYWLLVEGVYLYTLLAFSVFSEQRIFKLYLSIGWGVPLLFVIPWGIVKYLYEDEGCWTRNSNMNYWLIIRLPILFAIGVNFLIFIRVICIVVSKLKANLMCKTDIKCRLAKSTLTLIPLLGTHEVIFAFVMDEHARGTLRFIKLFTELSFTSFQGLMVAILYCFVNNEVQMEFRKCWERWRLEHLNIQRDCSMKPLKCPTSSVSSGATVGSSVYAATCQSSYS

[15] = target: T6, Glucagon-like peptide 1 receptor (Rattus norvegicus, UniProt P32301); experiment: Agonist activity at rat GLP-1R expressed in HEK293 cells by cAMP accumulation assay; type: functional, cell-based
T6 sequence (P32301 whole entry): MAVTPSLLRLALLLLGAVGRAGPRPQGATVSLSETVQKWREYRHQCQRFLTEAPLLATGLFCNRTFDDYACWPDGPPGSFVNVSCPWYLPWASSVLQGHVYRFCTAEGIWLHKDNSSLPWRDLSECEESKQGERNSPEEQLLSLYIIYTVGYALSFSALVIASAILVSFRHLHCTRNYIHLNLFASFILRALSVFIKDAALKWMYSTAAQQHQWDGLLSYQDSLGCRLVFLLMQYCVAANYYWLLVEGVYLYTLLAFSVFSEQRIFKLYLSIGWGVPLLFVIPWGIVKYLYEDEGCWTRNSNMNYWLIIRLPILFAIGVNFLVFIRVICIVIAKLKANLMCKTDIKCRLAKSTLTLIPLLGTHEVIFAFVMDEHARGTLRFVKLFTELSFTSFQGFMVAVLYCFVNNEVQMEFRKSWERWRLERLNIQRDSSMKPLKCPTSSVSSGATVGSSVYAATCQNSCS

[16] = Agonist activity at dog GLP-1R expressed in HEK293 cells by cAMP accumulation assay; settings: Canis lupus familiaris
[17] = Agonist activity at cynomolgus monkey GLP-1R expressed in HEK293 cells by cAMP accumulation assay; settings: Macaca fascicularis
[18] = target: T1, Glucagon-like peptide 1 receptor; experiment: Agonist activity at human GLP-1R expressed in HEK293 cells by cAMP accumulation assay; type: functional, cell-based
[19] = target: T1, Glucagon-like peptide 1 receptor; experiment: Agonist activity at human GLP-1R expressed in HEK293 cells assessed as beta-arrestin recruitment; type: functional, cell-based
[20] = Cmax in Sprague-Dawley rat at 10 mg/kg, po measured up to 24 hrs by LC-MS/MS analysis; type: ADME, organism-based; settings: in vivo
[21] = Tmax in Sprague-Dawley rat at 10 mg/kg, po measured up to 24 hrs by LC-MS/MS analysis; type: ADME, organism-based; settings: in vivo
[22] = AUC last in Sprague-Dawley rat at 10 mg/kg, po measured up to 24 hrs by LC-MS/MS analysis; type: ADME, organism-based; settings: in vivo
[23] = Oral bioavailability in Sprague-Dawley rat at 10 mg/kg measured up to 24 hrs by LC-MS/MS analysis; type: ADME, organism-based; settings: in vivo
[24] = AUC last in male Sprague-Dawley rat at 1 mg/kg, iv measured up to 24 hrs by LC-MS/MS analysis; type: ADME, organism-based; settings: in vivo
[25] = target: 5-HT1B receptor (Homo sapiens, UniProt P28222); experiment: Inhibition of 5-HT1B (unknown origin) at 10 uM relative to control; type: toxicity
Chain of 5-HT1B receptor (P28222 whole entry): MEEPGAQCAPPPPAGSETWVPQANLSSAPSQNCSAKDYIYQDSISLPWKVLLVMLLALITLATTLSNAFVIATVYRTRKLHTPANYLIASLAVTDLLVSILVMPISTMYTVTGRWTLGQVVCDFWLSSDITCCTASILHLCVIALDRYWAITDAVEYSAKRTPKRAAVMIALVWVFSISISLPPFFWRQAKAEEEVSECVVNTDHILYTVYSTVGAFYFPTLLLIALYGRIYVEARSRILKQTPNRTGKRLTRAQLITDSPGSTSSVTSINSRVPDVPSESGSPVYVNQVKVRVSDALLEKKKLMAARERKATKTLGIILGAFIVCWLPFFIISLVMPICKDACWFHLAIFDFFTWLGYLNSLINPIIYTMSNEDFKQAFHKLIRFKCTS

[26] = target: CB2 (cannabinoid receptor 2) (Homo sapiens, UniProt P34972); experiment: Inhibition of CB2 (unknown origin) at 10 uM relative to control; type: toxicity
Chain of CB2 (cannabinoid receptor 2) (P34972 whole entry): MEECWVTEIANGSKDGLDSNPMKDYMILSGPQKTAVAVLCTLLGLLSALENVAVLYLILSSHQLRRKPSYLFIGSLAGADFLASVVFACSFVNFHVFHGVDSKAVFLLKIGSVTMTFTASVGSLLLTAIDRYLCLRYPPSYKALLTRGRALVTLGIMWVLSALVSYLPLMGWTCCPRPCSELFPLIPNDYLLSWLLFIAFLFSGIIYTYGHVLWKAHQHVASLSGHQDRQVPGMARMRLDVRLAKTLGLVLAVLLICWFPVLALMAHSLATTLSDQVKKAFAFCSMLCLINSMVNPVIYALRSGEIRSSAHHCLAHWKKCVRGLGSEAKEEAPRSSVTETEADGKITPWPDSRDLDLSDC

[27] = Half life in Cynomolgus monkey at 0.5 mg/kg, iv measured up to 48 hrs by LC-MS/MS analysis; type: ADME, organism-based, Macaca fascicularis; settings: in vivo
[28] = Cmax in Cynomolgus monkey at 5 mg/kg, po measured up to 48 hrs by LC-MS/MS analysis; type: ADME, organism-based, Macaca fascicularis; settings: in vivo
[29] = Tmax in Cynomolgus monkey at 5 mg/kg, po measured up to 48 hrs by LC-MS/MS analysis; type: ADME, organism-based, Macaca fascicularis; settings: in vivo
[30] = AUC last in Cynomolgus monkey at 5 mg/kg, po measured up to 48 hrs by LC-MS/MS analysis; type: ADME, organism-based, Macaca fascicularis; settings: in vivo
[31] = Half life in Cynomolgus monkey at 5 mg/kg, po measured up to 48 hrs by LC-MS/MS analysis; type: ADME, organism-based, Macaca fascicularis; settings: in vivo
[32] = Oral bioavailability in Cynomolgus monkey at 5 mg/kg measured up to 48 hrs by LC-MS/MS analysis; type: ADME, organism-based, Macaca fascicularis; settings: in vivo
[33] = target: LCK (tyrosine-protein kinase Lck) (Homo sapiens, UniProt P06239); experiment: Inhibition of LCK (unknown origin) at 10 uM relative to control; type: toxicity
Chain of LCK (tyrosine-protein kinase Lck) (P06239 whole entry): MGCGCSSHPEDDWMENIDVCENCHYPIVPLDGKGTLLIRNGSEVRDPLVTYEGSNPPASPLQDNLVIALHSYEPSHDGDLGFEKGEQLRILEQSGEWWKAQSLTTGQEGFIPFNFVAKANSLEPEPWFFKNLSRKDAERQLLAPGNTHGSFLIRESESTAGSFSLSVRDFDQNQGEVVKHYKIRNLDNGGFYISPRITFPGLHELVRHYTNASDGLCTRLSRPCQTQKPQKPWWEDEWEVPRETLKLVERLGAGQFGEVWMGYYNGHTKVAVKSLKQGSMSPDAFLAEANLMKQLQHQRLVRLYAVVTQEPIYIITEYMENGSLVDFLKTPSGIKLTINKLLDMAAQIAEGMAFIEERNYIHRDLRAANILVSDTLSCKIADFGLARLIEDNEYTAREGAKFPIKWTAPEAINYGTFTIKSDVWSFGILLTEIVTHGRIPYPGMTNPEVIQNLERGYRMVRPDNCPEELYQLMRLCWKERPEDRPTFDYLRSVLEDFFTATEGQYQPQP

Chain of Voltage-gated inwardly rectifying potassium channel KCNH2 (Q12809 whole entry): as the sequence (Q12809 whole entry) above

O=C(O)c1ccc2nc(Cc3ccc(-c4cccc(OCc5ccc(Cl)c6cc(Cl)oc56)n4)cc3F)n(C[C@@H]3CCO3)c2c1
IC50 [1]: > 30 µM | inhibition at 30 µM [2]: < 50% | half-life at 1 µM [3]: 1.93 h | CLint scaled at 1 µM [4]: 15 mL/min/kg | CLhep predicted at 1 µM [5]: 8.7 mL/min/kg

Cc1cc2c(Cl)ccc(COc3cccc(-c4ccc(Cc5nc6ccc(C(=O)O)cc6n5C[C@@H]5CCO5)c(F)c4)n3)c2o1
EC50 [6]: 0.00755 µM

O=C(O)c1ccc2nc(Cc3ccc(-c4cccc(OCc5ccc(Cl)c6ccoc56)n4)cc3F)n(C[C@@H]3CCO3)c2c1
IC50 [1]: > 30 µM | inhibition at 30 µM [2]: < 50%

O=C(O)c1ccc2nc(Cc3ccc(-c4cncc(OCc5ccc(Cl)c6ccoc56)n4)cc3F)n(C[C@@H]3CCO3)c2c1
EC50 [6]: 0.0709 µM

O=C(O)c1ccc2nc(Cc3ccc(-c4ccc(F)c(OCc5ccc(Cl)c6ccoc56)n4)cc3F)n(C[C@@H]3CCO3)c2c1
EC50 [6]: 0.00132 µM | IC50 [1]: > 30 µM | inhibition at 30 µM [2]: < 50% | half-life at 1 µM [3]: 2.18 h | CLint scaled at 1 µM [4]: 13.3 mL/min/kg | CLhep predicted at 1 µM [5]: 8.09 mL/min/kg | IC50 [7]: > 30 µM | IC50 [8]: > 30 µM | IC50 [9]: 28.3 µM | IC50 [10]: > 30 µM | IC50 [11]: > 30 µM | IC50 [12]: > 30 µM | IC50 [13]: > 30 µM | EC50 [14]: > 30 µM | EC50 [15]: > 30 µM | EC50 [16]: > 30 µM | EC50 [17]: 0.012 nM | EC50 [18]: 0.029 nM | EC50 [19]: 0.118 µM | Cmax [20]: 347 ng/mL | Tmax [21]: 3.5 h | AUC(0-t) at 24 h [22]: 2960 ng·h/mL | bioavailability [23]: 20.1% | AUC(0-t) at 24 h [24]: 1480 ng·h/mL | inhibition at 10 µM [25]: 62.4% | inhibition at 10 µM [26]: 74.4% | half-life [27]: 12.7 h | Cmax [28]: 327 ng/mL | Tmax [29]: 2.5 h | AUC(0-t) at 48 h [30]: 2440 ng·h/mL | half-life [31]: 10.4 h | bioavailability [32]: 13.9% | inhibition at 10 µM [33]: 87.5%
